Measurements reported in patent publication US20120251448A1, “Compounds for Use in the Detection of Neurodegenerative Diseases” (priority 2011, published 2012).
Like-named read-outs stand apart in the source and are kept apart here.

What was measured:
α-synuclein aggregates = α-synuclein aggregates (Homo sapiens, UniProt P37840); assay: in vitro competition binding assay with [3H] positive reference compound #1 on α-synuclein aggregates
Protocol: In order to assess relative binding affinities of the test compounds for aggregated α-synuclein, competition assays were set up with a radiolabeled molecule already known to bind to α-synuclein fibrils and non-radiolabeled test compounds. In order to induce its aggregation, α-synuclein was incubated in phosphate buffered saline (PBS, pH 7.4) at 37° C. for three days with shaking (1,400 rpm). Competitive binding assays were carried out in 12×75 mm borosilicate glass tubes. […] The mixture was incubated for 120 min at 37° C., and the bound and the free radioactivity were separated by vacuum filtration through Whatman GF/B filters using a Brandel M-24R cell harvester, followed by washing with PBS buffer three times. […] IC50 values were determined by a non-linear, least squares regression analysis.

[1] = tested on: amyloid-β peptide of Alzheimer's disease; assay: binding affinity for amyloid-β peptide (data not shown)
[2] = competition against [3H] positive reference compound #1 (100-200 nM), 120 min at 37° C., PBS, Ki by Cheng-Prusoff from IC50

SMILES | Ki (α-synuclein aggregates; [2]) [nM] | Ki (α-synuclein aggregates) [nM] | binding affinity for the amyloid-β peptide [1]
Oc1ccc(-c2nc3cc(O)c(O)cc3o2)cc1O [SA-54] | 1640 | – | –
Oc1ccc(-c2nnc(-c3cc(O)c(O)cc3Br)o2)cc1O [SA-55] | – | 370 | –
Oc1ccc(-c2nsc(-c3ccc(O)c(O)c3)n2)cc1O [SA-57] | 124 | – | –
Oc1ccc(-c2cc(-c3ccc(O)c(O)c3)c(-c3ccc(O)c(O)c3)s2)cc1O [SA-61] | 3100 | – | –
Oc1ccc(-c2cnc(-c3ccc(O)c(O)c3)s2)cc1O [SA-64] | – | 89 | does not show significant binding affinity
Oc1ccc(-c2nnc(-c3ccc(O)c(O)c3)o2)cc1O [SA-67] | 466 | – | –
Oc1ccc(-c2cn(-c3ccc(O)c(O)c3)nn2)cc1O [SA-68] | 697 | – | –
Oc1ccc(-c2cnc(-c3ccc(O)c(O)c3)o2)cc1O [SA-70] | 659 | – | –
